# Results: paper PMC4741952, “Small molecule RL71 targets SERCA2 at a novel site in the treatment of human colorectal cancer” (Oncotarget, 2015)
# Molecular target: T1, SERCA2 (Homo sapiens, UniProt P16615)
# T1 construct: gene ATP2A2; endogenous SERCA2 in SW480 whole-cell lysates
# Assay: competition by […] free RL71 of the RL71-biotin streptavidin pull-down (LC/MS, anti-SERCA2 western blot); Ca2+-ATPase inhibition in treated SW480 cells
# Type: cell-based
# T1 sequence (P16615 whole entry): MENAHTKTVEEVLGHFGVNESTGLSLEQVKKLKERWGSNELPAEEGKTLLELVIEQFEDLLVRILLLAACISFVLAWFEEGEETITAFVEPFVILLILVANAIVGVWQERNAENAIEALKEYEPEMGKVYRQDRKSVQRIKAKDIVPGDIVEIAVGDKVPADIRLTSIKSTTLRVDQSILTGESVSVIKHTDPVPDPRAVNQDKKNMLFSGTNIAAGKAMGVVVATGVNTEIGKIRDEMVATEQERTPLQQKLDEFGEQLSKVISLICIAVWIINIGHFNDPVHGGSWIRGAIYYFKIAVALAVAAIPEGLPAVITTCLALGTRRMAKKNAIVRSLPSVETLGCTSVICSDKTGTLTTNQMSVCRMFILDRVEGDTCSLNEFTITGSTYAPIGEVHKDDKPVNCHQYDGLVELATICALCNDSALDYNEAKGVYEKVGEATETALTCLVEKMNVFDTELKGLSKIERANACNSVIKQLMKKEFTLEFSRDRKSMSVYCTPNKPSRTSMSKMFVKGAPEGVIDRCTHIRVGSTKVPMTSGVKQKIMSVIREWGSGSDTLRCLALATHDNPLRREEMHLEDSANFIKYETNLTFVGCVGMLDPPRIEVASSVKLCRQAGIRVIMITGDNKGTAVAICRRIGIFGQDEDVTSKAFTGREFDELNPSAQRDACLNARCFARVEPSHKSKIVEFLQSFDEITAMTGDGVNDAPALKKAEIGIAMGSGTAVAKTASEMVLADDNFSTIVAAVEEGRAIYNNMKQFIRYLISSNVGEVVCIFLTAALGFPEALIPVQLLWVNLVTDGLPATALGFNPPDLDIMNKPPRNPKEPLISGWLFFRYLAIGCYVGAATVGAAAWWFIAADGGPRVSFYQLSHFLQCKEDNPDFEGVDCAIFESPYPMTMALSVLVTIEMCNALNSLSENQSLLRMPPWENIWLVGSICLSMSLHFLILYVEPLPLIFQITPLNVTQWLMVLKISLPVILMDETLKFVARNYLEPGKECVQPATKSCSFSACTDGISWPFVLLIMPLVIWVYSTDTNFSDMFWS
structure (smiles),measurement,value
"COc1cc(C=C2CN(C)CC(=Cc3cc(OC)c(OC)c(OC)c3)C2=O)cc(OC)c1OC [compound 1, 3,5-bis(3,4,5-trimethoxybenzylidene)-1-methylpiperidine-4-one]",competition by 200 μM free RL71 of the RL71-biotin streptavidin pull-down (LC/MS),The interaction between RL71-biotin and SERCA2 could be competed by RL71.
